This is an account of results in patent US20160184274A1, “Methods for inhibiting mesenchymal phenotype after epithelial-to-mesenchymal transition” (Fibrostatin, S.L., priority 2014, published 2016).

The test system of one experiment is A7C11. Kind of experiment: Collagen IV expression in A7C11. Format: cell-based, murine. Particulars: data not shown.
In a further experiment the test system is RAW264.7. Kind of experiment: Collagen IV expression in RAW264.7. Type of experiment: cell-based. Particulars: data not shown.
Experiment [1] concerns mesenchymal A549 spheroids. Kind of experiment: Intracellular doxorubicin accumulation and viability in spheroids. Particulars: FIG. 9. Format: cell-based, Human. On the procedure: FIG. 9. T12 enhances intracellular accumulation of doxorubicin in A549 mesenchymal spheroids. A549 spheroids were subjected to EMT induction with TGF-β and TNF-α during 4 days, and treated with T12 (10 μM) or maintained untreated (Placebo) for the last 2 days. Three hours before spheroid analysis doxorubicin (1 μM) was added. Spheroids were fixed and analyzed by immunofluorescence confocal microscopy with anti-α1α2(IV) antibodies for collagen IV network visualization (grey). Doxorubicin was detected by its own auto-fluorescence. […] Three-dimensional spheroid cultures of A549 cells were obtained using a hanging droplet method (Kelm et al., 2003. Biotechnol. Bioeng. 83: 173-180.; Kumar et al., 2013. PLoS One. 8: e68597). Briefly, cells were grown to approximately 80% confluence on adherent tissue-culture flasks. Then cells were trypsinized, dispersed in DMEM/10% FBS, and counted using an automated cell counter (MOXI® Z, Orflo). The cell suspension was diluted to a 10^6 cells/mL-concentration, and 25 μl of the cell suspension were pipetted onto the underside of a sterile 10-cm tissue culture plate lid. Each lid was loaded with approximately 55 droplets. After loading, the lid was placed onto a tissue culture plate containing 6 mL of sterile PBS (phosphate-buffered saline) and incubated for 48 hours to facilitate spheroid formation. […]

Experiment [2] concerns A549 tumors displaying mesenchymal phenotype. The experiment in a line: A549 xenograft, tumors with mesenchymal phenotype. Type of experiment: in vivo. Particulars: T12 20 mg/kg/day in drinking water; athymic mice; FIG. 10A. An excerpt: FIG. 10. […] Control, n=43; T12, n=18.
Experiment [3] concerns patient-derived cisplatin-resistant mesenchymal NSCLC cells. Particulars: WO/2014/006020; cited from earlier work.
Another experiment deals with stem A549 cells. The settings on record: WO/2014/006020; cited from earlier work.

SMILES strings stand for the structures. Entries after “also recorded” stand apart in the source; their conditions may differ.

For the compound `COc1ccc(-c2ccc(-c3cccc(C)c3)c(C)c2)c(CCC(=O)O)c1` [T12, 3-[4″-methoxy-3,2′-dimethyl-(1,1′;4′,1″)terphenyl-2″-yl] propionic acid], the “collagen IV expression” value with A7C11 and with RAW264.7 was “significantly reduced collagen IV expression” each time. Also, in experiment [1] (T12 10 μM last 2 days, doxorubicin 1 μM 3 h before analysis), the “intracellular accumulation of doxorubicin (nuclei containing doxorubicin)” value was “accumulating doxorubicin inside the cells; also recorded: more abundant in spheroids treated with doxorubicin and T12 than in spheroids treated only with doxorubicin”. Also, the “viability of spheroids with doxorubicin” value in experiment [1] (T12 10 μM plus doxorubicin 1 μM) was “sharply reduced the viability”. In experiment [2], the “tumor growth (relative tumor volume)” value is given as “very effective slowing the growth”. For the same compound, in experiment [3], the toxicity result is reported as “high-toxicity”. Besides, the “doxorubicin accumulation and viability” value in the experiment on stem A549 cells is “accumulated doxorubicin reducing viability”.
